Measurements taken from PubChem BioAssay (NCI).
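A five-concentration, 48-hour dose response in 96-well plates underlies each endpoint, interpolated linearly between surrounding concentrations. Abbreviation: GI50, concentration required for 50% inhibition of growth. At the TGI there is no net growth.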

What was measured:
Assay in all cases: inhibition of tumour cell growth, NCI panel, 48 h
[1] = tested on: MCF7 breast
[2] = tested on: PC-3 prostate
[3] = tested on: IGROV1 ovarian
[4] = tested on: SK-OV-3 ovarian
[5] = tested on: UACC-257 melanoma
[6] = tested on: MALME-3M melanoma
[7] = tested on: NCI-H23 lung
[8] = tested on: CAKI-1 renal
[9] = tested on: RPMI-8226 leukemia
[10] = tested on: MDA-N

COc1ccc(C2CC(c3cccc(Nc4ccncc4)c3)=NN2c2ccccc2)cc1 (configuration not stated)
GI50 [1]: 1.87 µM | TGI [1]: 4.01 µM | GI50 [2]: 1.68 µM | TGI [2]: 3.38 µM | GI50 [3]: 1.81 µM | TGI [3]: 3.51 µM | GI50 [4]: 5.53 µM | TGI [4]: 20.9 µM | GI50 [5]: 2 µM | TGI [5]: 4.17 µM | GI50 [6]: 1.62 µM | TGI [6]: 3.08 µM | GI50 [7]: 1.88 µM | TGI [7]: 3.87 µM | GI50 [8]: 1.66 µM | TGI [8]: 3.18 µM

CC(C)(C)[C@H]1NC(=O)CN1C(=O)OCc1ccccc1
TGI [1]: > 100 µM | TGI [2]: > 100 µM | TGI [9]: > 100 µM | TGI [3]: > 100 µM | TGI [4]: > 100 µM | TGI [5]: > 100 µM | TGI [6]: > 100 µM | TGI [7]: > 100 µM

N#Cc1cc2c(n(C3OC(CO)C(O)C(O)C3O)c1=S)CCC2 (configuration not stated)
TGI [1]: > 100 µM | TGI [2]: > 100 µM | TGI [10]: > 100 µM | TGI [9]: > 100 µM | TGI [3]: > 100 µM | TGI [5]: > 100 µM | TGI [6]: > 100 µM | TGI [7]: > 100 µM | TGI [8]: > 100 µM

CCOC(=O)CC1C(C(=O)OCC)=Cn2c([nH]c3cccc4cccc2c43)=C1C(=O)OCC (configuration not stated)
TGI [1]: > 100 µM | TGI [2]: > 100 µM | TGI [10]: > 100 µM | TGI [9]: > 100 µM | TGI [3]: > 100 µM | TGI [4]: > 100 µM | TGI [5]: > 100 µM | TGI [7]: > 100 µM | TGI [8]: > 100 µM

CC(C)C(Nc1c2ccccc2[n+](C)c2ccccc12)C(=O)O (configuration not stated)
TGI [9]: > 100 µM | TGI [3]: > 100 µM | TGI [4]: > 100 µM | TGI [5]: > 100 µM | TGI [6]: > 100 µM | TGI [7]: > 100 µM | TGI [8]: > 100 µM

COc1ccc(/C=C2\N=C3N(Cc4ccccc4)C=C(N)N3C2=O)cc1
TGI [1]: > 100 µM | TGI [2]: > 100 µM | TGI [10]: > 100 µM | TGI [3]: > 100 µM | TGI [4]: > 100 µM | TGI [5]: > 100 µM | TGI [6]: > 100 µM | TGI [7]: > 100 µM | TGI [8]: > 100 µM

CCOC(=O)CSc1nc(-c2ccc(Cl)cc2)c(C#N)c(=O)[nH]1
TGI [1]: > 100 µM | TGI [2]: > 100 µM | TGI [9]: > 100 µM | TGI [3]: > 100 µM | TGI [4]: > 100 µM | TGI [5]: > 100 µM | TGI [7]: > 100 µM | TGI [8]: > 100 µM

Cc1cc(C)n(C(=CC(=O)C(Cl)Cl)n2nc(C)cc2C)n1
TGI [1]: > 100 µM | TGI [2]: 29.5 µM | TGI [9]: 3.69 µM | TGI [3]: 30.4 µM | TGI [4]: > 100 µM | TGI [5]: 4.97 µM | TGI [6]: 15.7 µM | TGI [7]: 13.2 µM | TGI [8]: 19.1 µM

COc1cc2ccc(C(C)NCC#N)cc2cc1OC (configuration not stated)
TGI [1]: > 100 µM | TGI [2]: > 100 µM | TGI [10]: > 100 µM | TGI [9]: > 100 µM | TGI [3]: > 100 µM | TGI [4]: > 100 µM | TGI [5]: > 100 µM | TGI [6]: > 100 µM | TGI [8]: > 100 µM

COc1cc2c(cc1OCCN1CCN(CCOc3cc4c(cc3OC)C(=O)N3CCC[C@H]3C=N4)CC1)N=C[C@@H]1CCCN1C2=O
TGI [1]: > 100 µM | TGI [2]: > 93.9 µM | TGI [9]: 15.4 µM | TGI [3]: > 78.3 µM | TGI [4]: > 100 µM | TGI [5]: > 100 µM | TGI [6]: 38.4 µM | TGI [7]: 46 µM | TGI [8]: 49.3 µM

Cc1cc(S(=O)(=O)NC2=NCc3c(F)cccc3N2)c(S)cc1Cl
TGI [1]: > 100 µM | TGI [2]: > 100 µM | TGI [10]: > 100 µM | TGI [9]: > 100 µM | TGI [3]: > 100 µM | TGI [5]: > 100 µM | TGI [6]: > 100 µM | TGI [8]: > 100 µM

CC(C)(C)c1cc(C(C)(C)C)c2sc(=O)oc2c1O
TGI [1]: 28 µM | TGI [2]: 28 µM | TGI [10]: 29.9 µM | TGI [9]: > 100 µM | TGI [3]: 27.7 µM | TGI [4]: 35.3 µM | TGI [5]: 20.2 µM | TGI [6]: 30.2 µM | TGI [8]: 25.3 µM

CC1(c2ccc(Cl)cc2)c2ccccc2C(=O)N1CCCN1C(=O)c2ccccc2C1=O (configuration not stated)
TGI [2]: > 100 µM | TGI [10]: > 100 µM | TGI [9]: > 100 µM | TGI [3]: 70.4 µM | TGI [4]: > 100 µM | TGI [5]: > 100 µM | TGI [7]: 97.9 µM | TGI [8]: > 100 µM

CCOC(=O)/C(=C/c1cn(C(C)=O)c2ccccc12)P(=O)(OC)OC
TGI [1]: > 100 µM | TGI [2]: > 100 µM | TGI [9]: 50.7 µM | TGI [3]: > 100 µM | TGI [4]: > 100 µM | TGI [5]: 41.5 µM | TGI [7]: > 100 µM | TGI [8]: > 100 µM

CC(C)(C)C(=O)C(N)C(=O)C(C)(C)C
TGI [1]: > 100 µM | TGI [2]: > 100 µM | TGI [10]: > 100 µM | TGI [9]: > 100 µM | TGI [4]: > 100 µM | TGI [5]: > 100 µM | TGI [6]: > 100 µM | TGI [8]: > 100 µM

COc1cc2c(cc1OC)C(C1CC1)ON(C)CC2 (configuration not stated)
TGI [1]: > 100 µM | TGI [2]: > 100 µM | TGI [10]: > 100 µM | TGI [9]: > 100 µM | TGI [3]: > 100 µM | TGI [5]: > 100 µM | TGI [6]: > 100 µM | TGI [7]: > 100 µM | TGI [8]: > 100 µM

Cc1cc(C)n(C(C)(C(=O)Cc2ccccc2)n2nc(C)cc2C)n1
TGI [1]: > 100 µM | TGI [2]: > 100 µM | TGI [10]: > 100 µM | TGI [9]: > 100 µM | TGI [3]: > 100 µM | TGI [4]: > 100 µM | TGI [6]: > 100 µM | TGI [7]: > 100 µM | TGI [8]: > 100 µM

CCOC(=O)CCC(NC(=O)c1ccc(NCc2ccc3nc(OC)c(OC)nc3c2)c2ccccc12)C(=O)OCC (configuration not stated)
TGI [1]: > 100 µM | TGI [2]: > 100 µM | TGI [10]: > 100 µM | TGI [3]: > 100 µM | TGI [4]: > 100 µM | TGI [5]: > 100 µM | TGI [6]: > 100 µM | TGI [7]: > 100 µM | TGI [8]: > 100 µM

O=c1[nH]c2ccccc2c(=O)n1/N=C\c1ccccc1O
TGI [1]: > 100 µM | TGI [2]: > 100 µM | TGI [10]: > 100 µM | TGI [9]: > 100 µM | TGI [3]: > 100 µM | TGI [4]: > 100 µM | TGI [5]: > 100 µM | TGI [7]: > 100 µM | TGI [8]: > 100 µM

CC1=NN(C(=O)CC(=O)Nc2cccc(C)c2)C(=O)C1N=Nc1ccc(C(=O)O)cc1 (configuration not stated)
TGI [1]: > 100 µM | TGI [2]: > 100 µM | TGI [10]: > 100 µM | TGI [9]: > 100 µM | TGI [3]: > 100 µM | TGI [5]: > 100 µM | TGI [6]: > 100 µM | TGI [7]: > 100 µM | TGI [8]: > 100 µM

O=C(CCCCCCCCC(=O)N1C(=O)CC(=O)N(c2ccc(Cl)cc2)C1=S)N1C(=O)CC(=O)N(c2ccc(Cl)cc2)C1=S
TGI [1]: > 100 µM | TGI [2]: > 100 µM | TGI [10]: > 100 µM | TGI [9]: > 100 µM | TGI [4]: > 100 µM | TGI [5]: > 100 µM | TGI [6]: > 100 µM | TGI [7]: > 100 µM | TGI [8]: > 100 µM

CC1OC23CCCCC2C(C#N)(C#N)C1(C#N)C(=N)O3 (configuration not stated)
TGI [1]: 52.3 µM | TGI [2]: 69.2 µM | TGI [10]: 35.8 µM | TGI [3]: 41.9 µM | TGI [4]: > 100 µM | TGI [5]: 37.6 µM | TGI [6]: 43.5 µM | TGI [7]: 52.7 µM | TGI [8]: 19.8 µM
